Laboratory results published in publication PMC4735769 (Cancer Medicine, 2015).

What was measured:
[1] = sorafenib plasma pharmacokinetics (LC-MS/MS, noncompartmental); format: in vivo, human
Procedure: Plasma samples were analyzed by protein precipitation. Calibration curves, linear from 5 to 2500 ng/mL with an R ^2 of >0.99, were generated for each run, with patient sample concentrations back‐calculated from the corresponding regression line.
(§1) Plasma concentration‐time data for both drugs were analyzed by noncompartmental methods using Phoenix WinNonlin 6.3 (Pharsight Corp., Mountain View, CA).

[2] = tested on: pediatric patients with relapsed solid tumors; assay: phase I dose escalation of oral sorafenib and topotecan: toxicity, DLT, MTD; conditions: osteosarcoma patient with prior doxorubicin 450 mg/m^2, on digoxin and lisinopril; cycle 2
Procedure: Intra‐patient dose escalation was not allowed on this study. […] Total daily dose for patients was rounded to the nearest 50 mg tablet size based on patient BSA (a dosing nomogram was used to minimize inter‐patient dosing variability). Patients ingested tablets with clear liquids (2–4 ounces for children <12 and 4 ounces for ≥12 years) and while dispersion in liquid was allowed, all patients swallowed tablets.
The capsules could not be chewed, crushed, or divided and were swallowed whole. […] Vials were dispensed in light protective bags and kept refrigerated. The reconstituted formulation was drawn up in oral syringes to the prescribed volume and administered to the patient immediately after reconstitution.
This dose‐escalation study used a standard 3 + 3 design, with up to six patients being enrolled on a DL. Enrollment to subsequent DLs was determined by the number of enrolled patients, the number with DLTs, and the number at risk for DLTs.
Toxicity was graded according to the Common Terminology Criteria for Adverse Events version 4.0 (http://ctep.cancer.gov). […]

[3] = tested on: pediatric preclinical cell models; conditions: read-out: median IC50; cited from earlier work
pediatric patients = conditions: phase I single-agent pediatric trial; cited from earlier work
[4] = topotecan plasma pharmacokinetics, total and lactone (HPLC fluorescence, noncompartmental); conditions: for T min: total topotecan
Procedure: The calibration curve was linear from 0.125 to 50 ng/mL, with the regression meeting acceptable criteria, with patient samples calculated as described above.
as §1

[5] = Cycle 1, day 28, 150 mg/m^2 (n = 8), steady state, sorafenib alone
[6] = Cycle 1, day 28, 200 mg/m^2 (n = 1), steady state, sorafenib alone
[7] = Cycle 2, day 1, 150 mg/m^2 (n = 6), steady state, with topotecan
[8] = Cycle 2, day 1, 200 mg/m^2 (n = 1), steady state, with topotecan

Question: For CNC(=O)c1cc(Oc2ccc(NC(=O)Nc3ccc(Cl)c(C(F)(F)F)c3)cc2)ccn1 [Sorafenib], which C avg [1, 5] is on record?
Answer: 5400 ± 2600 ng/mL

Question: What about the C max [1, 5] of the same molecule?
Answer: 6800 ± 3500 ng/mL

Question: And the C min [1, 5]?
Answer: 2900 ± 2500 ng/mL

Question: And the T max [1, 5]?
Answer: 4.0 ± 3.3 h

Question: And the T min [1, 5]?
Answer: 4.6 ± 3.4 h

Question: And the C avg [1, 6]?
Answer: 7600 ng/mL

Question: What about the C min [1, 6] of the same molecule?
Answer: 4900 ng/mL

Question: What about the T max [1, 6] of the same molecule?
Answer: 3 h

Question: What about the T min [1, 6] of the same molecule?
Answer: 8 h

Question: What about the C avg [1, 7] of the same molecule?
Answer: 4500 ± 3800 ng/mL

Question: What about the C min [1, 7] of the same molecule?
Answer: 3100 ± 2800 ng/mL

Question: What about the T min [1, 7] of the same molecule?
Answer: 4.3 ± 2.7 h

Question: What about the C avg [1, 8] of the same molecule?
Answer: 9800 ng/mL

Question: And the C min [1, 8]?
Answer: 6700 ng/mL

Question: And the T min [1, 8]?
Answer: 5 h

Question: And the “dose-normalized AUC, exposure to sorafenib with vs without topotecan” value ([1]; cycle 1 day 28 vs cycle 2 day 1, all dose levels)?
Answer: comparable amounts of exposure

Question: What about the “left ventricular ejection fraction on restart of sorafenib” value [2] of the same molecule?
Answer: ejection fraction again fell to grade 3

Question: What about the IC50 [3] of the same molecule?
Answer: 4.3 µM

Question: And the “dose-limiting toxicities (DLTs)” value (pediatric patients)?
Answer: rash and hypertension

Question: What does the source list for CC[C@@]1(O)C(=O)OCc2c1cc1n(c2=O)Cc2cc3c(CN(C)C)c(O)ccc3nc2-1 [Topotecan]?
Answer: drug–drug interaction, topotecan PK profiles in presence and absence of sorafenib ([4]; cycle 1 day 1 vs cycle 2 day 1): no apparent drug–drug interaction; T min ([4]; Cycle 1 Day 1 – 1.0 mg/m^2 (n = 3), without sorafenib): 4.7 (±1.1) h; T min ([4]; Cycle 2 Day 1 – 1.0 mg/m^2 (n = 3), sorafenib at steady state): 9.2 (±3.6) h
